Test results reported in ChEMBL document CHEMBL1145678, “Histamine-release effectors from Angelica dahurica var. dahurica root” (1997).

Legend:
[1] = system: Mus musculus; assay: Effect on compound 48/80-induced histamine level in ddY mouse peritoneal cavity fluid assessed as histamine release at 25 mg/kg, ip administered 15 mins before compound 48/80 challenge measured after 10 mins by fluorometric assay relative to control; assay type: functional; settings: route intraperitoneal
[2] = system: Mus musculus; assay: Effect on compound 48/80-induced histamine level in ddY mouse peritoneal cavity fluid assessed as histamine release at 10 mg/kg, ip administered 15 mins before compound 48/80 challenge measured after 10 mins by fluorometric assay relative to control; assay type: functional; settings: route intraperitoneal

With `COc1c2ccoc2c(OC[C@@H](O)C(C)(C)O)c2oc(=O)ccc12` [BYAKANGELICIN] as the compound, how does the Activity [1] read?
The Activity was 57%.

And the Activity [2]?
Its Activity is 105.4%.

Which Activity [1] does the source give for `CC(C)(O)[C@H](O)COc1c2ccoc2cc2oc(=O)ccc12` [OXYPEUCEDANIN HYDRATE] here?
The Activity was 69.1%.

And the Activity [2]?
Its Activity is 114.8%.

Which Activity [1] does the source give for `COc1c2ccoc2c(OC[C@@H](OC(C)=O)C(C)(C)O)c2oc(=O)ccc12` here?
Its Activity is 151%.

What about the Activity [2] of the same compound?
The Activity was 93.2%.

`CC1(C)O[C@H]1COc1c2ccoc2cc2oc(=O)ccc12` [OXYPEUCEDANIN] was tested. Which Activity [1] did it give?
The Activity was 136.1%.

What about the Activity [2] of the same compound?
Its Activity is 142.6%.

With `COc1c2ccoc2cc2oc(=O)ccc12` [BERGAPTEN] as the compound, how does the Activity [1] read?
Its Activity is 55.4%.

And the Activity [2]?
Its Activity is 108.2%.

With `COc1c2ccoc2c(OCC=C(C)C)c2oc(=O)ccc12` [PHELLOPTERIN] as the compound, how does the Activity [1] read?
Its Activity is 137.7%.

And the Activity [2]?
The Activity was 109.8%.
